Assay results reported in paper PMC8870237, “Improved Multimodal Tumor Necrosis Imaging with IRDye800CW-DOTA Conjugated to an Albumin-Binding Domain” (Cancers, 2022).

Assays:
[1] = test system: 4T1-Luc2 tumor-bearing mice; assay: Ex vivo biodistribution in 4T1-Luc2 tumor-bearing mice; parameters: species or system mouse; settings: for Tumor to blood ratio / Tumor to muscle ratio: 4T1-Luc2 tumors; for Blood uptake / Bone marrow uptake / Bone uptake / Brain uptake / Colon uptake / Heart uptake / Kidneys uptake / Liver uptake / Lung uptake / Lymph nodes uptake / Muscle uptake / Pancreas uptake / Skin uptake / Small intestine uptake / Spleen uptake / 4T1-Luc2 Tumors uptake: ±SEM; for Blood uptake / Bone marrow uptake / Bone uptake / Brain uptake / Colon uptake / Heart uptake / Kidneys uptake / Liver uptake / Lung uptake / Lymph nodes uptake / Muscle uptake / Pancreas uptake / Skin uptake / Small intestine uptake / Spleen uptake: n = 4; for 4T1-Luc2 Tumors uptake: n = 8
Protocol: Female BALB/cAnNRj-nude mice (six to eight weeks old) were housed in ventilated cages in groups of four to six mice and were provided standard laboratory animal food pellets and water ad libitum. One week after arrival, tumor cells were injected bilaterally on the shoulders. Tumor growth was monitored three days per week with a caliper. All groups consisted of four mice with bilateral tumors.
The 4T1-Luc2 cells (1.0 × 10^5) suspended in 15 µL PBS were inoculated bilaterally in 16 mice in four groups of four animals each. […] First, FLI imaging was performed with a 730 nm excitation and 760 nm emission filter for 400 ms with 4 × 4 binning. Then, the mice received an intraperitoneal injection of D-luciferin (150 mg/kg) maintaining the position of the mice in the bed unaltered, and BLI imaging was performed with an open filter for 400 ms with 4 × 4 binning. Full body (head to tail base) SPECT images of the 5 cm axial field of view were obtained over a total scan time of 30 min, followed by a 2 min full-body CT. After imaging, the mice were euthanized for ex vivo analysis.
After the final imaging experiments, the mice were sacrificed by cervical dislocation, tumors and organs were collected, weighted, and activity was accurately quantified by γ-counting to determine radioactivity uptake in the percentage of injected dose per gram (%ID/g). After γ-counting, the tumors were frozen in liquid nitrogen and stored at −80 °C overnight. Adjacent cryosections (10 µm) were prepared of the tumor centers for autoradiography. The sections were stored at −20 °C for the radioactivity to decay, before 800 nm fluorescence imaging and histochemical dead cell staining.

[2] = In vivo stability (radio-HPLC of urine 1 h after injection); parameters: species or system mouse; settings: mice, i.v., 1 h p.i.
Source text: After an hour, the mice were sacrificed by cervical dislocation and blood and urine were collected, which were frozen in liquid nitrogen directly after extraction. […] The supernatant was collected and analyzed by radio-HPLC (Method-D).

## CC1(C)C(=CC=C2CCCC(C=CC3=[N+](CCCCCC(=O)NCCCC[C@H](NC(=O)CCCc4ccc(I)cc4)C(=O)NCc4ccc(CNC(=O)CN5CCN(CC(=O)[O-])CCN(CC(=O)[O-])CCN(CC(=O)[O-])CC5)cc4)c4ccc(S(=O)(=O)O)cc4C3(C)C)=C2Oc2ccc(S(=O)(=O)O)cc2)N(CCCCS(=O)(=O)O)c2ccc(S(=O)(=O)O)cc21.[111In+3] [[^111In]3]
[1]; 4T1-Luc2 tumor-bearing mice, from biodistribution
  excretion route: predominately excreted via the renal tract
[1]; 4T1-Luc2 tumor-bearing mice, i.v.
  blood half-life: 9 h
[1]; 6 h p.i.
  Tumor to blood ratio: 0.91±0.05
  Tumor to muscle ratio: 3.19±0.43
[1]; 6 h p.i., i.v.
  Blood uptake: 4.34±0.22 %ID/g
  Bone marrow uptake: 1.42±0.87 %ID/g
  Bone uptake: 1.63±0.16 %ID/g
  Brain uptake: 0.14±0.03 %ID/g
  Colon uptake: 1.60±0.13 %ID/g
  Heart uptake: 2.32±0.11 %ID/g
  Kidneys uptake: 6.04±1.13 %ID/g
  Liver uptake: 2.24±0.28 %ID/g
  Lung uptake: 3.29±0.25 %ID/g
  Lymph nodes uptake: 3.91±0.97 %ID/g
  Muscle uptake: 1.31±0.20 %ID/g
  Pancreas uptake: 1.33±0.13 %ID/g
  Skin uptake: 2.59±0.09 %ID/g
  Small intestine uptake: 0.93±0.07 %ID/g
  Spleen uptake: 1.87±0.18 %ID/g
  4T1-Luc2 Tumors uptake: 3.94±0.19 %ID/g
[1]; 24 h p.i.
  Tumor to blood ratio: 2.50 ± 0.20
  Tumor to muscle ratio: 7.26±0.89
[1]; 24 h p.i., i.v.
  Blood uptake: 1.31±0.05 %ID/g
  Bone uptake: 0.93±0.13 %ID/g
  Brain uptake: 0.07±0.00 %ID/g
  Colon uptake: 0.70±0.07 %ID/g
  Heart uptake: 1.22±0.06 %ID/g
  Liver uptake: 1.20±0.01 %ID/g
  Lung uptake: 1.20±0.04 %ID/g
  Lymph nodes uptake: 2.42±0.18 %ID/g
  Muscle uptake: 0.46±0.03 %ID/g
  Pancreas uptake: 0.65±0.05 %ID/g
  Skin uptake: 1.83±0.29 %ID/g
  Small intestine uptake: 0.53±0.05 %ID/g
  Spleen uptake: 1.45±0.03 %ID/g
  4T1-Luc2 Tumors uptake: 3.27±0.25 %ID/g
[1]; 48 h p.i.
  Tumor to blood ratio: 4.54±0.45
  Tumor to muscle ratio: 7.27±0.34
[1]; 48 h p.i., i.v.
  Blood uptake: 0.58±0.01 %ID/g
  Bone uptake: 0.74±0.04 %ID/g
  Brain uptake: 0.04±0.00 %ID/g
  Colon uptake: 0.37±0.02 %ID/g
  Heart uptake: 0.78±0.01 %ID/g
  Kidneys uptake: 8.31±0.96 %ID/g
  Liver uptake: 0.90±0.04 %ID/g
  Lung uptake: 0.76±0.03 %ID/g
  Lymph nodes uptake: 3.30±0.62 %ID/g
  Muscle uptake: 0.36±0.03 %ID/g
  Pancreas uptake: 0.48±0.04 %ID/g
  Skin uptake: 1.46±0.03 %ID/g
  Small intestine uptake: 0.33±0.01 %ID/g
  Spleen uptake: 1.19±0.07 %ID/g
  4T1-Luc2 Tumors uptake: 2.62±0.23 %ID/g
[1]; 72 h p.i.
  Tumor to blood ratio: 7.36±0.93
  Tumor to muscle ratio: 9.10±1.58
[1]; 72 h p.i., i.v.
  Blood uptake: 0.31±0.03 %ID/g
  Bone marrow uptake: 2.25±0.65 %ID/g
  Bone uptake: 0.51±0.05 %ID/g
  Brain uptake: 0.03±0.00 %ID/g
  Colon uptake: 0.23±0.02 %ID/g
  Heart uptake: 0.63±0.02 %ID/g
  Kidneys uptake: 5.72±0.49 %ID/g
  Liver uptake: 0.83±0.04 %ID/g
  Lung uptake: 0.56±0.05 %ID/g
  Lymph nodes uptake: 2.39±0.25 %ID/g
  Muscle uptake: 0.26±0.03 %ID/g
  Pancreas uptake: 0.32±0.02 %ID/g
  Skin uptake: 1.52±0.09 %ID/g
  Small intestine uptake: 0.20±0.02 %ID/g
  Spleen uptake: 1.10±0.18 %ID/g
  4T1-Luc2 Tumors uptake: 2.25±0.64 %ID/g
[1]; adjacent sections of 4T1-Luc2 tumors
  ex vivo colocalization with dead cells (autoradiography, NIR fluorescence, TUNEL): specific binding of the tracer to necrotic tumor regions
[2]
  in vivo stability, remained stable: > 95%
